This is an account of results in US5723475A, “Arylpiperidine and arylpiperazine derivatives and medicament containing the same” (Suntory Limited, priority 1995, dated 1998).

Usually IC50 stands for the concentration that inhibits the measured activity by half. By LD50 is commonly meant the dose at which mortality reaches 50%.

The test system of one data set is Sodium Channel. As to the kind of experiment: Veratridine-induced Sodium Channel Activity Inhibitory Effect (suppression of veratridine-induced depolarization in synaptosomes, Rhodamine 6G). The format is biochemical, Wistar rats. As to conditions: compound 0.1 μM; rat brain synaptosomes. The protocol: Veratridine-induced Sodium Channel Activity Inhibitory Effect
The membrane potential of the synaptosomes prepared from the brain membrane of Wistar rats (male, 10 to 12 weeks old) was measured by the method of Aiuchi et al. [T. Aiuchi et al: Biochimi. Biophys. Acta.

The next data set has as its system T-type Ca^2+ channel. In words: T-Type Calcium Channel Inhibitory Effect (whole-cell patch clamp, hippocampal CA1 pyramidal cells). As to conditions: suppression of peak current after one minute of application; rat hippocampal CA1 pyramidal cells; read-out: T-type Ca^Z+ channel inhibitory effect IC50. In kind it is cell-based, Wistar rats. The protocol: T-Type Calcium Channel Inhibitory Effect
The hippocampal CA1 pyramidal cells were isolated from Wistar rats (male/female, 1 week old) in accordance with the method of Takahashi et al. [K. Takahashi et al.; J. Pharmacol. Exp. Ther., 256, 169 (1991)] and the T-type calcium current under conditions of a fixed membrane potential was measured using the whole-cell configuration of the pach clamp technique. The effects of the compounds were evaluated from the rate of suppression of the peak current after one minute of application using the concentration clamp method.
(The patch-clamp technique gives a direct electrical read-out from membranes.)

The next data set addresses T1, Dopamine D2 receptor (Rattus norvegicus, UniProt P61169).
T1 construct: membrane fraction prepared from the striatum of Wister male rats; from tissue; host or cells: striatum of male Wistar rats (6 weeks old), membrane fraction
In words: Dopamine D2 Receptor Blocking Effect ([3H] raclopride binding, striatum membrane fraction). Set-up: species or system Wister male rats. The conditions noted are these: 1.0 nM [3H] raclopride, 25° C., one hour. The protocol: Dopamine D2 Receptor Blocking Effect
57 μl of the membrane fraction prepared from the striatum of Wister male rats (6 weeks old) was incubated in a buffer at 25° C. for one hour along with the compound and 1.0 nM [^3 H) raclopride. A GF/C glass filter (0.1% polyethylene imine treatment) was used for separation of B/F, then the radioactivity was measured by a beta plate and the effect of the compound was evaluated.

Data set [1] is described as follows: acute toxicity, death rate up to 24 hours after intravenous injection. As to conditions: mouse, in vivo, ddY mice (male, 6 weeks old), read-out: 50% lethal dosage LD50 of acute toxicity. An excerpt:
The compounds of the present invention are low in toxicity.

A further data set relates to dopamine D2 receptors. As to conditions: due to its action of blocking dopamine D2 receptors; cited from earlier work.

T1 sequence (P61169 whole entry): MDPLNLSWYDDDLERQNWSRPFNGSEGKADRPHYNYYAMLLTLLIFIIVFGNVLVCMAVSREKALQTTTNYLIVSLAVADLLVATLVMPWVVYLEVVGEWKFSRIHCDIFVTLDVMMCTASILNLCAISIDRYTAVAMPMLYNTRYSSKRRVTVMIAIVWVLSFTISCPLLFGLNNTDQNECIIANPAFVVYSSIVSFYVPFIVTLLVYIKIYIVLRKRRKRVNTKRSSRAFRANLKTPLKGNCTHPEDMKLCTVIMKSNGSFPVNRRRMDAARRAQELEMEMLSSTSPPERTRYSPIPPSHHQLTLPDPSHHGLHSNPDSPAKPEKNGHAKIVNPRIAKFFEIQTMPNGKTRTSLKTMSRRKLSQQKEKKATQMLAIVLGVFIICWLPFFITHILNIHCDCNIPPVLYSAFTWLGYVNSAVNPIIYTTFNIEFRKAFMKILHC

As for `O=C(CN1CCC(c2ccc(Oc3ccccc3)cc2)CC1)N[C@@H]1C[C@H]1c1ccccc1` (relative stereo) [Compound 56, N-(trans-2-phenyl-1-cyclopropyl)-4-(4-phenoxyphenyl)-1-piperidinacetamide], the “Anti-veratridine effect (inhibiting rate %)” value in the data set with Sodium Channel turned out to be 38.4%. Turning to `O=C(CN1CCC(c2ccc(Cc3ccc(F)cc3)cc2)CC1)N[C@@H]1C[C@H]1c1ccccc1` (relative stereo) [Compound 57, N-(trans-2-phenyl-1-cyclopropyl)-4-[4-(4-fluorophenyl)methylphenyl]-1-piperidinacetamide], the IC50 in the data set with T-type Ca^2+ channel amounted to 1.5 µM. In addition, the “Anti-veratridine effect (inhibiting rate %)” value with Sodium Channel is given as 32.8%. As to `O=C(CCCN1CC=C(c2ccc(Oc3ccccc3)cc2)CC1)NC1CCCOc2ccccc21` (stereo not drawn) [Compound 29, 5-[4-(4-(4-phenoxyphenyl)-1,2,3,6-tetrahydropyridine-1-yl)butyrylamino]-2,3,4,5-tetrahydro-1-benzoxepine], the “Anti-veratridine effect (inhibiting rate %)” value in the data set on Sodium Channel stood at 27.9%. With `O=C(CCCN1CCC(c2ccc(Oc3ccccc3)cc2)CC1)NC1CCCOc2ccccc21` (stereo not drawn) [Compound 30, 5-[4-(4-(4-phenoxyphenyl)piperidin-1-yl)butyrylamino]-2,3,4,5-5 tetrahydro-1-benzoxepine], the “Anti-veratridine effect (inhibiting rate %)” value in the data set on Sodium Channel is reported as 21.4%.

`O=C(CCCN1CC=C(c2ccc(Oc3ccccc3)cc2)CC1)Nc1ccccc1Cc1ccccc1` [Compound 32, 2-benzyl-1-[4-(4-(4-phenoxyphenyl)-1,2,3,6-tetrahydropyridin-1-yl)butyrylamino]benzene] displayed an IC50 at Dopamine D2 receptor of more than 1 µM. The “Anti-veratridine effect (inhibiting rate %)” value with Sodium Channel is reported as 35.7%. As for `O=C(CCCN1CCC(c2ccc(Oc3ccccc3)cc2)CC1)Nc1ccccc1Cc1ccccc1` [Compound 33, 2-benzyl-1-[4-(4-(4-phenoxyphenyl)piperidin-1-yl)butyrylamino]benzene], in the data set with Sodium Channel, the “Anti-veratridine effect (inhibiting rate %)” value stood at 37.5%. Take `O=C(CCCN1CCN(c2ccc(Cc3ccc(F)cc3)cc2)CC1)Nc1ccccc1Cc1ccccc1` [Compound 34, 2-benzyl-1-[4-(4-(4-(4-fluorophenyl)methylphenyl)piperazin-1-yl)butyrylamino]benzene]: the values for the IC50 in the data set with T-type Ca^2+ channel and on Dopamine D2 receptor were 10 µM and 7 µM, respectively. The “Anti-veratridine effect (inhibiting rate %)” value with Sodium Channel was 50.2%.

As to `O=C(CCCN1CCC(c2ccc(Cc3ccc(F)cc3)cc2)CC1)Nc1ccccc1Cc1ccccc1` [Compound 35, 2-benzyl-1-[4-(4-(4-(4-fluorophenyl)methylphenyl)piperidin-1-yl)butyrylamino]benzene], in the data set on Sodium Channel, the “Anti-veratridine effect (inhibiting rate %)” value came out at 40.6%. In turn, `O=C(CCCCCN1CC=C(c2ccc(Oc3ccccc3)cc2)CC1)Nc1ccccc1Cc1ccccc1` [Compound 36, 2-benzyl-1-[6-(4-(4-phenoxyphenyl)-1,2,3,6-tetrahydropyridine-1-yl)hexanoylamino]benzene] registered an IC50 at Dopamine D2 receptor of more than 1 µM. Also, in the data set on Sodium Channel, the “Anti-veratridine effect (inhibiting rate %)” value came out at 55.1%. With `O=C(CCCCCN1CCC(c2ccc(Oc3ccccc3)cc2)CC1)Nc1ccccc1Cc1ccccc1` [Compound 37, 2-benzyl-1-[6-(4-(4-phenoxyphenyl)piperidin-1-yl)hexanoylamino]benzene], at Dopamine D2 receptor, the half-inhibitory concentration (IC50) was more than 1 µM. Besides, in the data set on Sodium Channel, the “Anti-veratridine effect (inhibiting rate %)” value stood at 62%. Consider `O=C(CCCCCN1CCN(c2ccc(Cc3ccc(F)cc3)cc2)CC1)Nc1ccccc1Cc1ccccc1` [Compound 38, 2-benzyl-1-[6-(4-(4-(4-fluorophenyl)methylphenyl)piperazin-1-yl)hexanoylamino]benzene], for which the “Anti-veratridine effect (inhibiting rate %)” value in the data set on Sodium Channel is listed as 56.6%.

For the compound `Cc1cccc(Cc2ccccc2)c1NC(=O)CN1CCC(c2ccc(Oc3ccccc3)cc2)CC1` [Compound 39, 2-benzyl-1-[2-(4-(4-phenoxyphenyl)piperidin-1-yl)acetylamino]-6-methylbenzene], the “Anti-veratridine effect (inhibiting rate %)” value in the data set with Sodium Channel worked out at 16.6%.

With `Cc1cccc(Cc2ccccc2)c1NC(=O)CCCN1CCC(c2ccc(Oc3ccccc3)cc2)CC1` [Compound 41, 2-benzyl-1-[4-(4-(4-phenoxyphenyl)piperidin-1-yl)butyrylamino]-6-methylbenzene], in the data set with Sodium Channel, the “Anti-veratridine effect (inhibiting rate %)” value was 30.4%. Turning to `Cc1cccc(Cc2ccccc2)c1NC(=O)CCCN1CCN(c2ccc(Cc3ccc(F)cc3)cc2)CC1` [Compound 42, 2-benzyl-1-[4-(4-(4-(4-fluorophenyl)methylphenyl)piperazin-1-yl)butyrylamino]-6-methylbenzene], the “Anti-veratridine effect (inhibiting rate %)” value in the data set on Sodium Channel was determined as 16.6%. Still for that read-out and setting: the value for `Cc1cccc(C)c1NC(=O)CCCN1CCC(c2ccc(Oc3ccccc3)cc2)CC1` [Compound 47, 2,6-dimethyl-1-[4-(4-(4-phenoxyphenyl)piperidin-1-yl)butyrylamino]benzene] was 17.3%; that for `Cc1cc(C)c(NC(=O)CCCN2CCC(c3ccc(Cc4ccc(F)cc4)cc3)CC2)c(C)c1` [Compound 49, 2,4,6-trimethyl-1-[4-(4-(4-(4-fluorophenyl)methylphenyl)piperidine-1-yl)butyrylamino]benzene] was 17%. Take `O=C(CCCN1CCN(c2ccc(Cc3ccc(F)cc3)cc2)CC1)N1CCCOc2ccccc21` [Compound 53, 5-[4-(4-(4-(4-fluorophenyl)methylphenyl)piperazin-1-yl)butyryl]-2,3,4,5-tetrahydro-1,5-benzoxazepine]: the IC50 was 2.8 µM with T-type Ca^2+ channel and 1.26 µM at Dopamine D2 receptor. Also, the LD50 at 24 h in data set [1] amounted to 46.5 mg/kg. Besides, the “Anti-veratridine effect (inhibiting rate %)” value in the data set on Sodium Channel amounted to 33.8%. With `O=C(CCCN1CCC(c2ccc(Cc3ccc(F)cc3)cc2)CC1)N1CCCOc2ccccc21` [Compound 54, 5-[4-(4-(4-(4-fluorophenyl)methylphenyl)piperidin-1-yl)butyryl]-2,3,4,5-tetrahydro-1,5-benzoxazepine], the “Anti-veratridine effect (inhibiting rate %)” value with Sodium Channel was found to be 29.4%. As to `O=C(CN1CCC(c2ccc(Oc3ccccc3)cc2)CC1)Nc1ccccc1` [Compound 59, N-phenyl-4-(4-phenoxyphenyl)-1-piperidinacetamide], in the data set with Sodium Channel, the “Anti-veratridine effect (inhibiting rate %)” value is reported as 32.9%.

`O=C(CN1CCC(c2ccc(Cc3ccc(F)cc3)cc2)CC1)Nc1ccccc1` [Compound 60, N-phenyl-4-[4-(4-fluorophenyl)methylphenyl]-1-piperidinacetamide]: the “Anti-veratridine effect (inhibiting rate %)” value with Sodium Channel was found to be 33.9%.

In the case of `O=C(NCCN1CCC(c2ccc(Oc3ccccc3)cc2)CC1)c1ccccc1` [Compound 62, 1-(2-benzoylaminoethyl)-4-(4-phenoxyphenyl)piperidine], in the data set with Sodium Channel, the “Anti-veratridine effect (inhibiting rate %)” value came to 36%. Take `O=C(NCCN1CCC(c2ccc(Oc3ccccc3)cc2)CC1)C1(c2ccccc2)CC1` [Compound 63, 1-[2-(1-phenyl-1-cyclopropylcarboxyamino)ethyl]-4-(4-phenoxyphenyl) piperidine]: the “Anti-veratridine effect (inhibiting rate %)” value with Sodium Channel was 36.2%.

As to `C=C(c1ccccc1)N(C)C(=O)CN1CCC(c2ccc(Oc3ccccc3)cc2)CC1` [Compound 64, N-methyl-N-(1-phenylvinyl)-4-(4-phenoxyphenyl)-1-piperidinacetamide], in the data set on Sodium Channel, the “Anti-veratridine effect (inhibiting rate %)” value was 31.5%. As for `Fc1ccc(C(c2ccc(F)cc2)N2CCN(C/C=C/c3ccccc3)CC2)cc1` [Flunarizine], in the data set on dopamine D2 receptors, the side effect result is on record as “onset of symptoms of Parkinson's disease”.
